Columns and labels:
[1] = test system: Leptosphaeria nodorum; assay: Leptosphaeria nodorum test (wheat) / protective; assay type: in vivo; conditions: Parastagonospora nodorum, active compound concentration 500 ppm, evaluation 7-9 days after inoculation, read-out: efficacy
Description: Thereafter, the plants are placed in a greenhouse at 90% relative atmospheric humidity and a temperature of 22° C.

[2] = test system: Pyrenophora teres; assay: Pyrenophora teres test (barley) / protective; assay type: in vivo; conditions: 192 h, active compound concentration 500 ppm, evaluation 8 days after inoculation, read-out: efficacy
Description: After the spray coating has dried on, the plants are sprayed with a spore suspension of Pyrenophora teres. The plants remain in an incubation cabinet for 48 hours at 20° C. and 100% relative atmospheric humidity.

[3] = test system: Pyricularia oryzae; assay: whole plant or invertebrate; assay type: in vivo; conditions: 120 h, read-out: efficacy
[4] = test system: Rhizoctonia solani; assay: Rhizoctonia test (rice) / protective; assay type: in vivo; conditions: 96 h, active compound concentration 250 ppm, evaluation 4 days after inoculation, read-out: efficacy
[5] = logP by LC-MS on reversed-phase columns (C 18), method [b], acidic range pH 2.7; assay type: physicochemical; conditions: pH 2.7, log p
Description: (§1) The logP values were determined in accordance with EEC Directive 79/831 Annex V.A8 by HPLC (High Performance Liquid Chromatography) on reversed-phase columns (C 18), using the methods below:
[b] The LC-MS determination in the acidic range is carried out at pH 2.7 using the mobile phases 0.1% aqueous formic acid and acetonitrile (contains 0.1% formic acid), linear gradient from 10% acetonitrile to 95% acetonitrile.

[6] = test system: Cochliobolus miyabeanus; assay: Cochliobolus test (rice) / protective; conditions: Bipolaris oryzae, in Oryza sativa, 96 h, read-out: efficacy
Description: Cochliobolus Test (Rice)/Protective • Solvent: 28.5 parts by weight of acetone • Emulsifier: 1.5 parts by weight of alkylaryl polyglycol ether
1 day after the treatment, the plants are inoculated with an aqueous spore suspension of Cochliobolus miyabeanus. The plants are then placed in a greenhouse at 100% relative atmospheric humidity and 25° C.
Evaluation is carried out 4 days after the inoculation.

[7] = test system: Venturia inaequalis; assay: Venturia test (apple) / protective; assay type: in vivo; conditions: 240 h, active compound concentration 100 ppm, evaluation 10 days after inoculation, read-out: efficacy
Description: After the spray coating has dried on, the plants are inoculated with an aqueous conidia suspension of the apple scab pathogen Venturia inaequalis and then remain for 1 day in an incubation cabinet at about 20° C. and 100% relative atmospheric humidity.

[8] = test system: Alternaria solani; assay: Alternaria test (tomato) / protective; assay type: in vivo; conditions: 72 h, active compound concentration 100 ppm, evaluation 3 days after inoculation, read-out: efficacy
Description: The plants are then placed in an incubation cabinet at about 20° C. and 100% relative atmospheric humidity.

[9] = test system: Sphaerotheca fuliginea; assay: Sphaerotheca test (cucumber) / protective; assay type: in vivo; conditions: Podosphaera fuliginea, 168 h, active compound concentration 500 ppm, evaluation 7 days after inoculation, read-out: efficacy
Description: The plants are subsequently placed in a greenhouse at 70% relative atmospheric humidity and a temperature of 23° C.

[10] = logP by LC-MS on reversed-phase columns (C 18), method [c], neutral range pH 7.8; assay type: physicochemical; conditions: pH 7.8
Description: as §1
[c] The LC-MS determination in the neutral range is carried out at pH 7.8 using the mobile phases 0.001 molar aqueous ammonium bicarbonate solution and acetonitrile, linear gradient from 10% acetonitrile to 95% acetonitrile.

SMILES	pest or weed control at 500 ppm [1]	pest or weed control at 500 ppm [2]	pest or weed control at 250 ppm [3]	pest or weed control at 250 ppm [4]	chromatographic logP [5]	pest or weed control at 250 ppm [6]	pest or weed control at 100 ppm [7]	pest or weed control at 100 ppm [8]	pest or weed control at 500 ppm [9]	chromatographic logP [10]
CCCSc1cccc(Nc2ncc(Cl)c(NC3CCC3)n2)c1 [Example 5]	≥ 70%	≥ 70%	≥ 80%	≥ 80%	3.66	≥ 80%	–	–	–	–
COCc1cccc(Nc2ncc(Cl)c(NC3CCCC3)n2)c1 [Example 7]	≥ 70%	–	–	≥ 80%	2.23	≥ 80%	–	–	–	–
COC(C)c1cccc(Nc2ncc(C(F)(F)F)c(NC3CCC3)n2)c1 (centres unmarked) [Example 19]	≥ 70%	≥ 70%	≥ 80%	≥ 80%	3.69	≥ 80%	–	–	–	–
COCc1cccc(Nc2ncc(Cl)c(NC(C)C)n2)c1 [Example 26]	≥ 70%	–	≥ 80%	≥ 80%	1.76	≥ 80%	≥ 70%	≥ 70%	–	–
COCc1cccc(Nc2ncc(Br)c(NC(C)C)n2)c1 [Example 70]	≥ 70%	–	≥ 80%	≥ 80%	1.92	≥ 80%	–	–	–	–
COCCOc1cccc(Nc2ncc(C(F)(F)F)c(NC3CCC3)n2)c1 [Example 71]	≥ 70%	–	≥ 80%	≥ 80%	3.33	≥ 80%	–	–	–	–
COC(C)c1cccc(Nc2ncc(Cl)c(NCC(F)(F)F)n2)c1 (centres unmarked) [Example 83]	≥ 70%	–	≥ 80%	≥ 80%	2.82	≥ 80%	≥ 70%	≥ 70%	≥ 70%	3.18
CCOCCOc1ccc(Nc2ncc(C(F)(F)F)c(NC3CC3)n2)cc1 [Example 91]	≥ 70%	≥ 70%	≥ 80%	≥ 80%	3.26	≥ 80%	–	–	≥ 70%	3.64
COC(C)c1cc(Nc2ncc(Cl)c(NC3CC3)n2)ccc1C (centres unmarked) [Example 92]	≥ 70%	–	≥ 80%	–	2.11	≥ 80%	≥ 70%	≥ 70%	≥ 70%	3.7
CCOCCOc1cccc(Nc2ncc(Cl)c(NC3CC3)n2)c1 [Example 93]	≥ 70%	≥ 70%	≥ 80%	–	2.13	≥ 80%	≥ 70%	≥ 70%	≥ 70%	3.3
CCC[S+]([O-])c1cccc(Nc2ncc(Cl)c(NC3CCC3)n2)c1 (centres unmarked) [Example 100]	≥ 70%	–	≥ 80%	≥ 80%	2.09	≥ 80%	≥ 70%	≥ 70%	–	–
CCSc1cccc(Nc2ncc(C(F)(F)F)c(NC3CC3)n2)c1 [Example 101]	≥ 70%	≥ 70%	≥ 80%	≥ 80%	3.95	≥ 80%	–	–	≥ 70%	4.21
CCC[S+]([O-])c1cccc(Nc2ncc(Br)c(NC3CC3)n2)c1 (centres unmarked) [Example 102]	≥ 70%	≥ 70%	≥ 80%	≥ 80%	1.04	≥ 80%	–	–	–	2.5
CCCS(=O)(=O)c1cccc(Nc2ncc(Cl)c(NC3CCC3)n2)c1 [Example 103]	≥ 70%	–	–	≥ 80%	2.6	≥ 80%	–	–	–	3.27
CCCCSc1cccc(Nc2ncc(Br)c(NC3CC3)n2)c1 [Example 105]	≥ 70%	–	≥ 80%	≥ 80%	4	≥ 80%	–	–	–	4.99
CCCCSc1cccc(Nc2ncc(Cl)c(NC3CCC3)n2)c1 [Example 106]	≥ 70%	–	≥ 80%	≥ 80%	4.28	≥ 80%	≥ 70%	≥ 70%	–	5.13
CCCCSc1cccc(Nc2ncc(C(F)(F)F)c(NC3CC3)n2)c1 [Example 107]	≥ 70%	–	≥ 80%	≥ 80%	4.94	≥ 80%	–	–	–	–
CCCSc1cccc(Nc2ncc(C(F)(F)F)c(NC3CC3)n2)c1 [Example 109]	≥ 70%	–	≥ 80%	≥ 80%	4.44	≥ 80%	–	–	≥ 70%	–
CCS(=O)(=O)c1cccc(Nc2ncc(C(F)(F)F)c(NC3CC3)n2)c1 [Example 116]	≥ 70%	≥ 70%	≥ 80%	≥ 80%	2.74	≥ 80%	≥ 70%	–	≥ 70%	2.8
CC[S+]([O-])c1cccc(Nc2ncc(C(F)(F)F)c(NC3CC3)n2)c1 (centres unmarked) [Example 117]	≥ 70%	≥ 70%	≥ 80%	≥ 80%	2.2	≥ 80%	–	–	≥ 70%	2.46
CCCCS(=O)(=O)c1cccc(Nc2ncc(C(F)(F)F)c(NC3CC3)n2)c1 [Example 121]	≥ 70%	–	≥ 80%	≥ 80%	3.4	≥ 80%	≥ 70%	≥ 70%	≥ 70%	3.46
CCCC[S+]([O-])c1cccc(Nc2ncc(Br)c(NC3CC3)n2)c1 (centres unmarked) [Example 126]	≥ 70%	≥ 70%	≥ 80%	≥ 80%	2.28	≥ 80%	–	–	–	2.86
COCc1cccc(Nc2ncc(C(F)(F)F)c(NCC3CC3)n2)c1 [Example 127]	≥ 70%	≥ 70%	≥ 80%	≥ 80%	–	≥ 80%	–	–	≥ 70%	–
COC(C)c1cccc(Nc2ncc(Cl)c(NC(C)C)n2)c1 (centres unmarked) [Example 129]	≥ 70%	–	≥ 80%	≥ 80%	2.02	≥ 80%	≥ 70%	≥ 70%	≥ 70%	3.67
COCCCSc1cccc(Nc2ncc(Cl)c(NC3CC3)n2)c1 [Example 201]	≥ 70%	–	≥ 80%	≥ 80%	2.59	≥ 80%	–	–	–	3.77
